From patent US12357619B2, “Noradrenergic and specific serotonergic anxiolytic and antidepressant, method for the production and use thereof” (ALLA CHEM, LLC, priority 2020, dated 2025)

Biological target: T1, Serotonin 5-HT1A (Homo sapiens, UniProt P08908)
T1 sequence (P08908 1-422): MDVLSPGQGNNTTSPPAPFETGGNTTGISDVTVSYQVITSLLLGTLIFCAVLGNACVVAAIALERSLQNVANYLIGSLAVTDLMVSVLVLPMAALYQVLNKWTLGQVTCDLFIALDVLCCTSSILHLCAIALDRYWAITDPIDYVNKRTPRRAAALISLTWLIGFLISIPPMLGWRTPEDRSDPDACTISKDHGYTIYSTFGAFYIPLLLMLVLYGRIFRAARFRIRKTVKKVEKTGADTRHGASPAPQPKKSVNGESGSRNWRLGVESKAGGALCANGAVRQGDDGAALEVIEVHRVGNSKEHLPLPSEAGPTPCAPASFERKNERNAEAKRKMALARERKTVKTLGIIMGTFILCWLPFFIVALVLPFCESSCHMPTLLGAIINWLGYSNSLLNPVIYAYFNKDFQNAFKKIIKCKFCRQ
Assay: Receptor activities, Ki (Table 1)
Format: binding

Question: With `Cc1ccc2c(c1)c1c(n2CCc2ccccc2)CCN(C)C1.Cl` [A•HCl, 2,8-dimethyl-5-(2-phenylethyl)-2,3,4,5-tetrahydro-1H-pyrido[4,3-b]indole hydrochloride] as the compound, how does the Ki read?
Answer: 61 nM
